Assay [1] deals with T1, beta-catenin/TCF4 engagement (Homo sapiens, UniProt P35222).
T1 construct: expressed in transfected cells; host or cells: HEK293
T1 sequence (P35222 1-781): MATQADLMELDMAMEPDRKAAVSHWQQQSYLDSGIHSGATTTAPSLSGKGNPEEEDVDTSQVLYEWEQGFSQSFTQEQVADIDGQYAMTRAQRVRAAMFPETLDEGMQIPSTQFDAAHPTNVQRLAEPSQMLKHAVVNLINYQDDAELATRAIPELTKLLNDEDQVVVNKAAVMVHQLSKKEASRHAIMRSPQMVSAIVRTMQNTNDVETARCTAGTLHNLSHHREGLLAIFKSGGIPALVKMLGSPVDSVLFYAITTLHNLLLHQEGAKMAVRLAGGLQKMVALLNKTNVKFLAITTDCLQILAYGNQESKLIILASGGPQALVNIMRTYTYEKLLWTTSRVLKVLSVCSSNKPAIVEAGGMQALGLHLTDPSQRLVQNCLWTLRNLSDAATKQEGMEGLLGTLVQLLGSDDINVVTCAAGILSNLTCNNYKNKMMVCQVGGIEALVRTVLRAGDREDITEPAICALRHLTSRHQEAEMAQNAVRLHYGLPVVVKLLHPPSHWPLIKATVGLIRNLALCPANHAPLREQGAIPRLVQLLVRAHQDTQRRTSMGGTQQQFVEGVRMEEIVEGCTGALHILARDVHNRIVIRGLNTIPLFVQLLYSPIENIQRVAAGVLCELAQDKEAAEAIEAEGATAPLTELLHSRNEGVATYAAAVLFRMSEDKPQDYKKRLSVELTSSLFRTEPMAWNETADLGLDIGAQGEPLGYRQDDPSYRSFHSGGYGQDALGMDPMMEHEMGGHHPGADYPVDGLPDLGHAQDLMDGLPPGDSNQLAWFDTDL
Kind of assay: Nano-BRET target engagement assay (B-cat-Halo & TCF4-Luc in HEK293 cells). It counts as cell-based. To be noted: absolute IC50; read-out: NanoBRET Abs IC50. On the technique in general: BRET reads energy transfer from a luciferase to a nearby fluorophore.

In assay [2] the target is T2, full-length beta-Catenin (Uniprot ID P35222) (Homo sapiens, UniProt P35222).
T2 construct: 10 nM full-length beta-Catenin (Uniprot ID P35222)
T2 sequence (P35222 1-781): T1 sequence (P35222 1-781)
Kind of assay: Fluorescence polarization IC50 (beta-catenin / 5FAM-TCF4 10-53 competition). It counts as binding. To be noted: fluorescence polarization; read-out: beta-Catenin FP IC50.

Assay [3] relates to TCF/LEF luciferase Reporter in DLD1 cells. Kind of assay: TCF reporter assay (DLD1 TCF/LEF luciferase reporter, Bright-Glo). It counts as cell-based. To be noted: read-out: DLD1 4% Abs IC50, 4%, absolute IC50. The text has this: Those skilled in the art will appreciate that other suitable reagents may be utilized and various parameters may be adjusted.
DLD1 reporter cell line was generated by using TCF/LEF luciferase Reporter Lentivirus (BPS Bioscience Catalog #79787). Parental DLD1 cells (ATCC@ CCL-221) were transfected with the lentivirus and followed by 3-day puromycin selection. Single clone was selected for Reporter assay.
On Day 1, cultured cells in flasks that are no more than about 60-70% confluent were washed with PBS and typsinized in 3 mL/T75 until cells were free floating. Spin down cells for 5 minutes at 1100RPM. While cells spin, determine the number of plates (3 compounds per plate) needed. After spinning, aspirate the supernatant gently and add 10 mL media (RPMI+4% FBS), and re-suspend and mix the cells gently. Count the cells twice in the cell counter Countess and take average of both the counts, and determine how many cells are needed. After plating cells at 5000 cells/well, seal with aerseal film. 90 uL cells/well. Incubate at 37° C. overnight, tap gently to mix and don't stack plates.
On Day 2, compounds were added. Stock solution was 10 mM. Make the DMSO containing media by adding 36 uL DMSO to 10 mL of media. Make the dilution wells by transferring 100 uL DMSO+Media into rows B-F of a protein LoBind 96-well plate. Row G is empty. Add any extra DMSO+media to row H. Transfer 4 uL of stock solution to Row A. One compound per column. Add 196 uL media to Row A, no DMSO in the media. Concentration of Row A was 200 uM. Mix well and do a 6 pt, 1:2 serial dilution, mix ×10 per transfer and change tips before each transfer. Removed excess volume from final well (row F) and discard. Transfer 10 uL of the compound containing media to cells with a multichannel according to plate maps. Add 60 uL DMSO containing media to the DMSO wells. The edge wells were typically not used in the assay and could be ignored if needed or replaced with PBS, but there typically were liquids in the wells. Cover plates with breathable plate sealer and incubate overnight.
A 96-well plate may be utilized to prepare dilution series for up to 12 compounds, each with several concentrations (e.g., 200, 100, 50, 25, 12.5, 6.25 and 0 uM; can be utilized as 100× depending on final test concentrations).
0 uM is the DMSO control for the whole plate. Edge well filled with 90 uL cells+10 uL DMSO containing media.
On Day 3, luciferase levels were assessed using Bright-Glo (Promega). Equilibrate Bright-Glo to room temperature before addition. 7 mL of mixed Bright-Gbo per plate. Unused Bright-Glo could be store at −80° C. Reconstituted reagent can be stored for up to 1 month at −80° C., or after one freeze-thaw. When ready to read, remove plates from incubator and let sit at room temperature for 15 minutes. Typically stagger taking out plates if reading multiple plates before adding the Bright-Glo. Add 90 uL/well Bright-Glo and shake gently for 3 minutes. Read luminescence on GloMax immediately using ‘BrightGlo’ programs.
Cellular activity was assessed using CTG. Equilibrate CTG reagents to room temperature. Equilibrate plates to room temp, e.g. 15 min. Use same time length for all plates. Add CTG reagent, 25 uL if using undiluted, or 90 uL if diluted 1 to 4. Shake for 2 min to induce cell lysis. Allow plate to incubate at RT for 10 min to stabilize lumine sent signal. Read luminesence using program ‘CellTiter-Glo’. Use Prism to find the Absolute IC50 (AbsIC50=X[50]) of each compound.
(Reporter assays use an easily measured gene product as a stand-in for the process of interest.)

Where two headings read alike, the source gives them in different places.

From patent US20240116985A1, “STAPLED PEPTIDES AND METHODS THEREOF” (priority 2020, published 2024) come the findings set out here.

For `CC(=O)N1CCC[C@]12CC=CCCCC1(CCCC=CCCCOC(=O)N3CC[C@@](C(=O)N[C@@H](Cc4ccccc4C(F)(F)F)C(=O)N[C@@H](Cc4csc5ccccc45)C(=O)N[C@@H](CCC(N)=O)C(N)=O)(C3)NC(=O)[C@H](CC(C)C)NC(=O)[C@H](Cc3ccccc3)NC(=O)[C@H](C)NC(=O)[C@H](C)NC(=O)[C@H](CC(=O)O)NC(=O)[C@H](CC(=O)O)NC1=O)NC(=O)[C@H](CC(C)(C)C)NC(=O)[C@H](CC(=O)O)NC2=O` (stereo partly drawn) [I-1318, Ac-PL3-Asp-Npg-B5-Asp-Asp-Ala-Ala-Phe-Leu-PyrS2-2F3MeF-BztA-Gln-NH2], the figures for the half-maximal inhibitory concentration (IC50) in assay [1], in assay [2] and in assay [3] (DLD1 reporter) were 4.8 µM, 0.014 µM and 3.9 µM, respectively.

Turning to `CC(=O)N1CCC[C@]12CC=CCCCC1(CCCC=CCCCOC(=O)N3CC[C@@](C(=O)N[C@@H](Cc4ccsc4)C(=O)N[C@@H](Cc4csc5ccccc45)C(=O)N[C@@H](CCC(N)=O)C(N)=O)(C3)NC(=O)[C@H](CC(C)C)NC(=O)[C@H](Cc3ccccc3)NC(=O)[C@H](C)NC(=O)[C@H](C)NC(=O)[C@H](CN(CC(=O)O)CC(F)(F)F)NC(=O)[C@H](CC(=O)O)NC1=O)NC(=O)[C@H](CC(C)(C)C)NC(=O)[C@H](CC(=O)O)NC2=O` (stereo partly drawn) [I-1461, Ac-PL3-Asp-Npg-B5-Asp-TfeGA-Ala-Ala-Phe-Leu-PyrS2-3Thi-BztA-Gln-NH2], the IC50 – broadly, the concentration at which inhibition is half-maximal – in assay [1] stood at 3.7 µM; in assay [2], 0.01 µM; in assay [3] (DLD1 reporter), 1.7 µM.

Consider `CC(=O)N1CCC[C@]12CC=CCCCC1(CCCC=CCCCOC(=O)N3CC[C@@](C(=O)N[C@@H](Cc4ccccc4C(F)(F)F)C(=O)N[C@@H](Cc4csc5ccccc45)C(=O)N[C@@H](CC(=O)N4CCN(C)CC4)C(N)=O)(C3)NC(=O)[C@H](CC(C)C)NC(=O)[C@H](Cc3ccccc3)NC(=O)[C@H](C)NC(=O)[C@H](C)NC(=O)[C@H](Cc3cccc(C(=O)O)c3)NC(=O)[C@H](CC(=O)O)NC1=O)NC(=O)[C@H](CC(C)(C)C)NC(=O)[C@H](CC(=O)O)NC2=O` (stereo partly drawn) [I-1612, Ac-PL3-Asp-Npg-B5-Asp-3COOHF-Ala-Ala-Phe-Leu-PyrS2-2F3MeF-BztA-MePpzAsn-NH2], for which the IC50 in assay [1] came out at 5.3 µM; in assay [2] it was 0.01 µM; in assay [3] (DLD1 reporter assay), 4 µM.

On to `CC(=O)N1CCC[C@]12CC=CCCCC1(CCCC=CCCCOC(=O)N3CC[C@@](C(=O)N[C@@H](Cc4ccccc4C(F)(F)F)C(=O)N[C@@H](Cc4csc5ccccc45)C(=O)N[C@@H](CCCCNC(C)C)C(N)=O)(C3)NC(=O)[C@H](CC(C)C)NC(=O)[C@H](Cc3ccccc3)NC(=O)[C@H](C)NC(=O)[C@H](C)NC(=O)[C@H](Cc3cccc(C(=O)O)c3)NC(=O)[C@H](CC(=O)O)NC1=O)NC(=O)[C@H](CC(C)(C)C)NC(=O)[C@H](CC(=O)O)NC2=O` (stereo partly drawn) [I-1616, Ac-PL3-Asp-Npg-B5-Asp-3COOHF-Ala-Ala-Phe-Leu-PyrS2-2F3MeF-BztA-iPrLys-NH2], for which the IC50 in assay [1] was 4.5 µM; in assay [2], 0.013 µM; in assay [3] (DLD1 reporter assay) it was 2.8 µM.

As to `CC(=O)N1CCC[C@]12CC=CCCCC1(CCCC=CCCCOC(=O)N3CC[C@@](C(=O)N[C@@H](Cc4ccsc4)C(=O)N[C@@H](Cc4csc5ccccc45)C(=O)N[C@@H](CCC(N)=O)C(N)=O)(C3)NC(=O)[C@H](CC(C)C)NC(=O)[C@H](Cc3ccccc3)NC(=O)[C@H](C)NC(=O)[C@H](C)NC(=O)[C@H](CN(CCCC(F)(F)F)CC(=O)O)NC(=O)[C@H](CC(=O)O)NC1=O)NC(=O)[C@H](CC(C)(C)C)NC(=O)[C@H](CC(=O)O)NC2=O` (stereo partly drawn) [I-1629, Ac-PL3-Asp-Npg-B5-Asp-[Tfb]GA-Ala-Ala-Phe-Leu-PyrS2-3Thi-BztA-Gln-NH2], the IC50 in assay [1] is 4.3 µM; in assay [2], 0.012 µM; in assay [3] (DLD1 reporter assay), 2.7 µM.

As to `CC(=O)N1CCC[C@]12CC=CCCCC1(CCCC=CCCCOC(=O)N3CC[C@@](C(=O)N[C@@H](Cc4ccsc4)C(=O)N[C@@H](Cc4csc5ccccc45)C(=O)N[C@@H](CCC(N)=O)C(N)=O)(C3)NC(=O)[C@H](CC(C)C)NC(=O)[C@H](Cc3ccccc3)NC(=O)[C@H](C)NC(=O)[C@H](C)NC(=O)[C@H](CN(CC(=O)O)Cc3c(F)c(F)c(F)c(F)c3F)NC(=O)[C@H](CC(=O)O)NC1=O)NC(=O)[C@H](CC(C)(C)C)NC(=O)[C@H](CC(=O)O)NC2=O` (stereo partly drawn) [I-1632, Ac-PL3-Asp-Npg-B5-Asp-[Pfbn]GA-Ala-Ala-Phe-Leu-PyrS2-3Thi-BztA-Gln-NH2], the IC50 in assay [1] is 6.5 µM; in assay [2], 0.01 µM; in assay [3] (DLD1 reporter assay), 2.6 µM.

Regarding `CC(=O)N1CCC[C@]12CC=CCCCC1(CCCC=CCCCOC(=O)N3CC[C@@](C(=O)N[C@@H](Cc4ccccc4Cl)C(=O)N[C@@H](Cc4csc5ccccc45)C(=O)N[C@@H](CCC(N)=O)C(N)=O)(C3)NC(=O)[C@H](CC(C)C)NC(=O)[C@H](Cc3ccccc3)NC(=O)[C@H](C)NC(=O)CNC(=O)[C@H](Cc3cccc(C(=O)O)c3)NC(=O)[C@H](CC(=O)O)NC1=O)NC(=O)[C@H](CC(C)(C)C)NC(=O)[C@H](CC(=O)O)NC2=O` (stereo partly drawn) [I-1684, Ac-PL3-Asp-Npg-B5-Asp-3COOHF-Gly-Ala-Phe-Leu-PyrS2-2C1F-BztA-Gln-NH2], the IC50 in assay [1] turned out to be 4.5 µM; in assay [2] it was 0.013 µM; in assay [3] (DLD1 reporter assay), 3.4 µM.

Turning to `CCCC[C@@H]1NC(=O)[C@H](Cc2cccc(C(=O)O)c2)NC(=O)[C@H](CC(=O)O)NC(=O)C2(CCCC=CCCCOC(=O)N3CC[C@@](C(=O)N[C@@H](Cc4ccccc4Cl)C(=O)N[C@@H](Cc4csc5ccccc45)C(=O)N[C@@H](CCC(N)=O)C(N)=O)(C3)NC(=O)[C@H](CC(C)C)NC(=O)[C@H](Cc3ccccc3)NC(=O)[C@H](C)NC1=O)CCCC=CC[C@]1(CCCN1C(C)=O)C(=O)N[C@@H](CC(=O)O)C(=O)N[C@@H](CC(C)(C)C)C(=O)N2` (stereo partly drawn) [I-1685, Ac-PL3-Asp-Npg-B5-Asp-3COOHF-nLeu-Ala-Phe-Leu-PyrS2-2C1F-BztA-Gln-NH2], the results for the IC50 in assay [1], in assay [2] and in assay [3] (DLD1 reporter assay) were 3.5 µM, 0.023 µM and 1.3 µM, respectively.
